Among the test systems are EKVX NSCLC; HOP-92 NSCLC; HT29 colon; IGROV1 ovarian; KM12 colon; NCI-H23 lung; NCI-H522 lung; OVCAR-4 ovarian; OVCAR-8 ovarian; SK-OV-3 ovarian.
What all share (test): DTP human tumour cell line panel, 48 h

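Where inhibition never reached the appropriate level, the endpoint shown equals the highest concentration tested. Otherwise, values were interpolated linearly from a five-concentration, 48-hour dose response in 96-well plates. The concentration for 50% growth inhibition is given as GI50. TGI denotes the concentration required for complete inhibition of growth.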 Bounds are passed on as bounds.

One may read the GI50 as the concentration giving 50% growth inhibition. The term TGI denotes the concentration giving total growth inhibition. Read a low TGI as greater sensitivity of the cells.

As to `O=C1COCCN1c1ccc(NCc2cn(Cc3ccc(F)cc3)c3ccccc23)cc1`, the GI50 in the assay on EKVX NSCLC was 10.8 µM; with HOP-92 NSCLC, 1.74 µM; with HT29 colon it was 1.67 µM; in the assay with IGROV1 ovarian it was 0.0668 µM; in the assay with KM12 colon, 15 µM; with NCI-H23 lung, 2.64 µM. Also, the GI50 was 2.75 µM with NCI-H522 lung, 0.173 µM with OVCAR-4 ovarian, 4.3 µM in the assay on OVCAR-8 ovarian and 1.65 µM in the assay with SK-OV-3 ovarian. The TGI in the assay with EKVX NSCLC is over 66.7 µM; in the assay on HOP-92 NSCLC, 11.8 µM; in the assay with HT29 colon, over 100 µM; with IGROV1 ovarian it was 1.05 µM; in the assay with KM12 colon it was over 75.9 µM; with NCI-H23 lung, 32.1 µM. The TGI with NCI-H522 lung is 17.8 µM; in the assay on OVCAR-4 ovarian, 3 µM; in the assay on OVCAR-8 ovarian, over 86.8 µM; with SK-OV-3 ovarian, 8.14 µM.

In the case of `NC(CSC(c1ccccc1)(c1ccccc1)c1ccc(Br)cc1)C(=O)O` (stereo not given), the GI50 is 0.707 µM in the assay on EKVX NSCLC; 2.47 µM in the assay with HOP-92 NSCLC; 0.399 µM with HT29 colon; 0.293 µM in the assay with IGROV1 ovarian; 0.212 µM in the assay on KM12 colon; 0.438 µM in the assay on NCI-H23 lung. Besides, the GI50 with NCI-H522 lung is 0.12 µM; in the assay on OVCAR-4 ovarian it was 19.9 µM; with OVCAR-8 ovarian, 0.321 µM; in the assay with SK-OV-3 ovarian it was 0.162 µM. Further, the TGI was over 100 µM in the assay with EKVX NSCLC; 39.6 µM with HOP-92 NSCLC; over 54.9 µM with HT29 colon; 40.8 µM with IGROV1 ovarian; 12.7 µM in the assay with KM12 colon; 66.7 µM in the assay with NCI-H23 lung. The TGI with NCI-H522 lung was 22.3 µM; in the assay on OVCAR-4 ovarian it was over 100 µM; in the assay with OVCAR-8 ovarian, over 51.7 µM; in the assay on SK-OV-3 ovarian, over 72.7 µM.

For the compound `O=P1(NCCCl)OCCC(OO)N1CCCl` (stereo not given), the TGI with EKVX NSCLC was over 100 µM; in the assay with HOP-92 NSCLC, 33.4 µM; in the assay on HT29 colon it was over 81.9 µM; in the assay on IGROV1 ovarian it was over 100 µM; in the assay on KM12 colon it was over 100 µM; in the assay on NCI-H23 lung, over 84.8 µM. The total growth inhibition concentration (TGI) in the assay on NCI-H522 lung is 25.6 µM; in the assay with OVCAR-4 ovarian, 39.1 µM; in the assay on OVCAR-8 ovarian, over 100 µM; with SK-OV-3 ovarian it was over 100 µM.

Take `Clc1ccc2c(NCCCNCc3ccc4c(c3)OCO4)ccnc2c1`: the GI50 is 9.4 µM in the assay with EKVX NSCLC; 0.739 µM in the assay on HOP-92 NSCLC; 2.23 µM in the assay with HT29 colon; 5.52 µM in the assay on IGROV1 ovarian; 3.86 µM with KM12 colon; 8.59 µM in the assay on NCI-H23 lung. The GI50 in the assay with NCI-H522 lung is 2.44 µM; with OVCAR-4 ovarian, 10.8 µM; with OVCAR-8 ovarian it was 3.64 µM; with SK-OV-3 ovarian, 14.7 µM. Also, the TGI in the assay on EKVX NSCLC was 24 µM; in the assay with HOP-92 NSCLC, 4.74 µM; in the assay on HT29 colon, 6.85 µM; in the assay with IGROV1 ovarian it was 20.9 µM; with KM12 colon, 15.1 µM; in the assay with NCI-H23 lung, 23.8 µM. For the same compound, the TGI with NCI-H522 lung was 8.01 µM; in the assay with OVCAR-4 ovarian, 24.8 µM; with OVCAR-8 ovarian, 13.1 µM; in the assay on SK-OV-3 ovarian, 29.3 µM.

Take `COc1cccc(/C=N/[N-]C(N)=O)c1[O-].[Cu+2].c1ccncc1`: the TGI turned out to be 65.5 µM in the assay on EKVX NSCLC; 31.5 µM in the assay with HOP-92 NSCLC; 85.3 µM in the assay with HT29 colon; 49.9 µM in the assay with IGROV1 ovarian; 35.9 µM in the assay with KM12 colon; 45.8 µM in the assay on NCI-H23 lung. Further, the TGI in the assay with NCI-H522 lung came to 34.6 µM; with OVCAR-4 ovarian, 56.2 µM; in the assay with OVCAR-8 ovarian, 86.1 µM; in the assay on SK-OV-3 ovarian, 49.7 µM.

As for `C=C(C=O)[C@@H]1CC=C(C=O)CC1`, the GI50 was 14.5 µM in the assay with EKVX NSCLC; 2.38 µM in the assay on HOP-92 NSCLC; 3.54 µM in the assay on HT29 colon; 3.19 µM in the assay on IGROV1 ovarian; 4.21 µM with KM12 colon; 3.83 µM in the assay with NCI-H23 lung. For the same compound, the GI50 in the assay with NCI-H522 lung is 37.8 µM; in the assay on OVCAR-4 ovarian it was 4.19 µM; in the assay with OVCAR-8 ovarian it was 3.69 µM; in the assay with SK-OV-3 ovarian, 20.1 µM. The concentration for total growth inhibition (TGI) with EKVX NSCLC is 67.6 µM; in the assay on HOP-92 NSCLC, 7.58 µM; in the assay with HT29 colon it was over 100 µM; in the assay with IGROV1 ovarian, over 23.3 µM; with KM12 colon it was 27.8 µM; in the assay with NCI-H23 lung it was over 100 µM. Further, the TGI in the assay on NCI-H522 lung was over 100 µM; with OVCAR-4 ovarian it was over 100 µM; in the assay with OVCAR-8 ovarian, over 100 µM; with SK-OV-3 ovarian, 50.5 µM.

Consider `O=c1c(Br)ccc(Br)cc1Br`, for which the GI50 was 1.71 µM in the assay with EKVX NSCLC; 1.53 µM in the assay on HOP-92 NSCLC; 1.77 µM with HT29 colon; 2.4 µM in the assay with IGROV1 ovarian; 2.64 µM in the assay on KM12 colon; 1.72 µM in the assay on NCI-H23 lung. Further, the GI50 with NCI-H522 lung was 0.17 µM; with OVCAR-4 ovarian it was 2.47 µM; with OVCAR-8 ovarian, 2.75 µM; with SK-OV-3 ovarian it was 15.7 µM. For the same compound, the TGI with EKVX NSCLC was 3.39 µM; in the assay on HOP-92 NSCLC, 3.05 µM; in the assay with HT29 colon, 4.45 µM; in the assay on IGROV1 ovarian, 5.64 µM; in the assay with KM12 colon, 6.36 µM; with NCI-H23 lung it was 3.66 µM. The TGI in the assay with NCI-H522 lung is 0.364 µM; with OVCAR-4 ovarian, 4.63 µM; in the assay with OVCAR-8 ovarian, 8.78 µM; in the assay with SK-OV-3 ovarian, 29.2 µM.

Turning to `NC1=C(O)/C(=N/NS(=O)(=O)c2ccccc2)C(c2cccc(Cl)c2)O1` (stereo not given), the TGI in the assay with EKVX NSCLC is over 100 µM; with HOP-92 NSCLC, 53 µM; in the assay on HT29 colon it was 55 µM; with IGROV1 ovarian, over 100 µM; in the assay on KM12 colon, over 100 µM; with NCI-H23 lung it was 73.5 µM. In addition, the TGI in the assay on NCI-H522 lung is 26.4 µM; in the assay with OVCAR-4 ovarian it was over 100 µM; in the assay on OVCAR-8 ovarian, over 67.8 µM; in the assay on SK-OV-3 ovarian it was over 100 µM.

Consider `C/C(=N\O)c1ccc(Nc2cc(-c3ccccc3)nc3c(O)cccc23)cc1`, for which the GI50 in the assay on EKVX NSCLC is 18.9 µM; in the assay on HOP-92 NSCLC, 20.1 µM; with HT29 colon it was 19.8 µM; in the assay on IGROV1 ovarian, 17.1 µM; in the assay on KM12 colon, 4.06 µM; with NCI-H23 lung, 17 µM. Also, the GI50 in the assay with NCI-H522 lung is 16.7 µM; in the assay with OVCAR-4 ovarian, 25.4 µM; with OVCAR-8 ovarian it was 6.99 µM; in the assay on SK-OV-3 ovarian it was 27.4 µM. Further, the TGI is over 100 µM in the assay on EKVX NSCLC; 44.6 µM with HOP-92 NSCLC; 48.1 µM in the assay with HT29 colon; 34.6 µM with IGROV1 ovarian; 21.4 µM with KM12 colon; 49.5 µM with NCI-H23 lung. The TGI in the assay with NCI-H522 lung came out at 33.3 µM; in the assay with OVCAR-4 ovarian it was 73.2 µM; in the assay with OVCAR-8 ovarian it was 29.2 µM; in the assay on SK-OV-3 ovarian it was 56.1 µM.

The values above are taken from PubChem BioAssay (NCI).
